Reference: patent publication US12102637B2, “Pharmaceutical formulations for treating endometriosis, uterine fibroids, polycystic ovary syndrome or adenomyosis” (AbbVie Inc., priority 2017, dated 2024)
“Also recorded” adds a separate entry of the source. Marks after values point to notes of the source that are not given here.

Columns and labels:
[1] = tested on: premenopausal women with HMB, uterine fibroids and adenomyosis; test: Phase 2b trial in women with HMB and uterine fibroids, subgroup with non-dominant adenomyosis; format: in vivo, human
Procedure: Patients and Methods: […] Elagolix studied in this clinical trial comprised the sodium salt of Compound A. All subjects were evaluated with ultrasound and a subset volunteered to also be evaluated by MRI. […] Efficacy and safety were evaluated post hoc in a subgroup of women who had confirmed non-dominant adenomyosis (ultrasound/MRI) at baseline. Menstrual blood loss (MBL) was quantified from sanitary products (alkaline hematin). […] Adverse events (AEs) were recorded.

[2] = Pharmacokinetics in renal impairment; format: in vivo, human; conditions: moderate to severe or end stage renal disease vs normal renal function
From the text: The mean exposures are similar for women with moderate to severe or end stage renal disease (including women on dialysis) compared to women with normal renal function.

[3] = tested on: premenopausal women with endometriosis with associated pain; test: Study EM-I: responders on Daily Endometriosis Pain Impact Scale; format: in vivo, human; conditions: 150 mg QD
From the text: Each placebo-controlled study assessed the reduction in endometriosis-associated pain over 6 months of treatment. More than 75 percent of women who completed Study EM-I and EM-II enrolled in the extension studies for an additional 6 months treatment period. Subjects were followed for up to 12 months post-treatment. See FIGS. 11-14 The co-primary efficacy endpoints were the proportion of responders for dysmenorrhea and pelvic pain not related to menses (also known as non-menstrual pelvic pain [NMPP]) at Month 3 compared to placebo. The primary analysis independently evaluated these endpoints using a daily diary that asked patients to assess their pain and its impact on their daily activities, over the previous 24 hours. […] Women were defined as responders if they experienced clinically meaningful reduction in dysmenorrhea and/or NMPP with no increased analgesic use for endometriosis associated pain. Dyspareunia was evaluated as a secondary endpoint using the Daily Endometriosis Pain Impact Scale.

[4] = tested on: endometrium; test: Endometrial biopsies in Study EM-I and its extension; format: in vivo, human; conditions: Month 6 and Month 12
Procedure: Endometrial biopsies were performed in subjects in Study EM-I and its extension at Month 6 and Month 12.

[5] = Lactation study in rats (elagolix in pup plasma); format: in vivo, rat
Procedure: Pregnant rats were given diet containing elagolix throughout the gestation and lactation periods to achieve a daily elagolix dose of 400 mg/kg. During nursing the dams and litters were divided into restricted feeding and non-restricted groups to determine whether elagolix was secreted in the mother's milk. […] In pups of the non-restricted feeding group, elagolix plasma concentrations were measurable and approximately 1% of the mother's plasma concentrations.

[6] = tested on: healthy women; test: 3-menstrual cycle study in healthy women (ovulation, endometrial thickness); format: in vivo, human; conditions: 150 mg QD and 200 mg BID, vs pretreatment
[7] = tested on: premenopausal women with endometriosis with associated pain; test: Rescue analgesic (opioid, naproxen) use in EM-I and EM-II; format: in vivo, human
Procedure: These effects were less consistently observed for women taking elagolix 150 mg QD. […] Reduction in pain may be reflected by reduction in pain medication, such as prescription opioids or non-steroidal anti-inflammatory agents (NSAIDs) that may be prescribed or found over the counter, for example, naproxen or acetaminophen. […] In this pooled analysis of rescue analgesic use in two phase 3 trials, compared with placebo: […] […] In EM-1 and EM-2, 59% and 60% of patients used an opioid rescue analgesic for pain at baseline. The opioid rescue analgesics used at baseline were predominantly hydrocodone/acetaminophen (HC/APAP) and codeine/APAP at strengths of 5/300-325 mg and 30/300-500 mg. In EM-1, of all patients on an opioid at baseline, 98% and 2% were on HC/APAP and codeine/APAP, respectively. In EM-2, of all patients on an opioid at baseline, 50% were on HC/APAP, 16% were on codeine/APAP, 3% were on codeine, and 32% were on tramadol/APAP.

[8] = tested on: premenopausal women with endometriosis with associated pain; test: Studies EM-I and EM-II: dysmenorrhea scores and Numeric Rating Scale (NRS) pain; format: in vivo, human
From the text: Women in these studies also provided a daily self-assessment of their endometriosis pain using the Numeric Rating Scale (NRS), on a scale ranging from 0 (no pain) to 10 (worst pain ever).

[9] = tested on: premenopausal women with endometriosis with associated pain; test: Blinded extension studies EM-III and EM-IV (12 months); format: in vivo, human; conditions: patients maintained on their dose
From the text: Each placebo-controlled study assessed the reduction in endometriosis-associated pain over 6 months of treatment. More than 75 percent of women who completed Study EM-I and EM-II enrolled in the extension studies for an additional 6 months treatment period. Subjects were followed for up to 12 months post-treatment. In study EM-IV, efficacy was maintained when elagolix was taken with and without food.

[10] = tested on: mice; test: 2-year carcinogenicity study in mice; format: in vivo; conditions: mouse, any dose
[11] = tested on: women treated in Studies EM-I and EM-II; test: Adverse reactions in Studies EM-I and EM-II; format: in vivo, human; conditions: for Percentage of Patients with Amenorrhoea / Percentage of Patients with Anxiety / Percentage of Patients with Arthralgia / Percentage of Patients with Headache / Percentage of Patients with Hot Flush / Percentage of Patients with Insomnia / Percentage of Patients with Nasopharyngitis / Percentage of Patients with Nausea / Percentage of Patients with Sinusitis / Percentage of Patients with Upper Respiratory Tract Infection: Studies EM-I and EM-II; for discontinuations due to hot flush / discontinuations due to nausea / patients who discontinued therapy due to adverse reactions: EM-I and EM-II
From the text: The population age range was 18-49 years old. Women who completed six months of treatment and met eligibility criteria continued treatment in two blinded six-month extension studies, for a total treatment duration of up to 12 months.

In the case of `COc1cccc(-c2c(C)n(Cc3c(F)cccc3C(F)(F)F)c(=O)n(C[C@H](NCCCC(=O)O)c3ccccc3)c2=O)c1F` [Compound A, 4-((R)-2-[5-(2-fluoro-3-methoxy-phenyl)-3-(2-fluoro-6-trifluoromethyl-benzyl)-4-methyl-2,6-dioxo-3,6-dihydro-2H-pyrimidin-1-yl]-1-phenyl-ethylamino)-butyric acid], the “proportion of women with ≥50% reduction from baseline in HMB and <80 mL MBL in the last 28 days of treatment” value (“proportion of women with ≥50% reduction” below) ([1]; Cohort 1, elagolix 300 mg BID with 0.5 mg E2/0.1 mg NETA (n=12)) is reported as 83%, the “proportion of women with ≥50% reduction” value ([1]; Cohort 1, elagolix 300 mg BID with 1.0 mg E2/0.5 mg NETA (n=5)) is reported as 100% and the “proportion of women with ≥50% reduction” value ([1]; Cohort 2, elagolix 600 mg QD with 0.5 mg E2/0.1 mg NETA (n=14)) is reported as 93%. The “proportion of women with ≥50% reduction” value ([1]; Cohort 2, elagolix 600 mg QD with 1.0 mg E2/0.5 mg NETA (n=9)) was 89%, the “At least 1 AE, related or unrelated to study drug” value ([1]; elagolix-treated groups (n=22) in Cohort 1) was 77% and the “At least 1 AE, related or unrelated to study drug” value ([1]; elagolix-treated groups (n=38) in Cohort 2) was 67%. The “exposures (Cmax and AUC) in renal impairment” value [2] was “not altered by renal impairment”, the “Proportion of Responders, Dysmenorrhea (Month 3)” value [3] was 45.4*** % and the endometrial biopsy findings [4] was “no abnormal biopsy findings post-baseline”. For the same compound, the “elagolix plasma concentrations in pups, % of the mother's plasma concentrations” value ([5]; dams 400 mg/kg daily in diet, non-restricted feeding group) was “approximately 1%”, the “elagolix plasma concentrations in pups” value ([5]; dams 400 mg/kg daily in diet, restricted feeding litters, post natal day 10 and 20) was “not measurable” and the secretion in milk ([5]; listed as elagolix) was “secreted minimally via milk; also recorded: minimally secreted in milk”. The “mean endometrial thickness (transvaginal ultrasound)” value [6] was “dose dependent decrease in the mean endometrial thickness”, the “amount of opioid or naproxen rescue medication used vs baseline” value ([7]; 200 mg BID) was “reduced the amount of opioid (hydrocodone with acetaminophen) or naproxen rescue medication” and the “mean percent daily rescue opioid pill counts” value ([7]; pooled analysis, 200 mg BID, vs placebo) was “significant reduction in the mean percent daily pill counts”. The “percentage of days in which rescue opioid medication was taken” value ([7]; pooled analysis, both doses 150 QD and 200 BID, vs placebo) was “significant reduction in the percentage of days in which rescue opioid medication was taken”, the “Numeric Rating Scale (NRS) endometriosis pain scores” value ([8]; 150 mg QD and 200 mg BID, vs placebo at Month 3 and Month 6) was “highly statistically (p<0.001) significant reduction in NRS scores” and the “mean decreases from Baseline in dysmenorrhea scores” value ([8]; both elagolix treatment groups, Month 1 through Month 6, vs placebo) was “statistically significantly greater than placebo”. For the same compound, the “durability of improvement in dysmenorrhea, NMPP and dyspareunia” value [9] was “demonstrated for a total of 12 months”, the “tumors, 2-year carcinogenicity study” value [10] was “no increase in tumors” and the “Percentage of Patients with Amenorrhoea” value ([11]; 150 mg QD, N = 475) was 4%. The “Percentage of Patients with Anxiety” value ([11]; 150 mg QD, N = 475) was 3%, the “Percentage of Patients with Arthralgia” value ([11]; 150 mg QD, N = 475) was 3% and the “Percentage of Patients with Headache” value ([11]; 150 mg QD, N = 475) was 17%. For the same compound, the “Percentage of Patients with Hot Flush” value ([11]; 150 mg QD, N = 475) was 23%, the “Percentage of Patients with Insomnia” value ([11]; 150 mg QD, N = 475) was 6% and the “Percentage of Patients with Nasopharyngitis” value ([11]; 150 mg QD, N = 475) was 6%. For the same compound, the “Percentage of Patients with Nausea” value ([11]; 150 mg QD, N = 475) was 11%, the “Percentage of Patients with Sinusitis” value ([11]; 150 mg QD, N = 475) was 5% and the “Percentage of Patients with Upper Respiratory Tract Infection” value ([11]; 150 mg QD, N = 475) was 6%. For the same compound, the “Percentage of Patients with Amenorrhoea” value ([11]; 200 mg BID, N = 477) was 7%, the “Percentage of Patients with Anxiety” value ([11]; 200 mg BID, N = 477) was 5% and the “Percentage of Patients with Arthralgia” value ([11]; 200 mg BID, N = 477) was 5%. For the same compound, the “Percentage of Patients with Headache” value ([11]; 200 mg BID, N = 477) was 20%, the “Percentage of Patients with Hot Flush” value ([11]; 200 mg BID, N = 477) was 45% and the “Percentage of Patients with Insomnia” value ([11]; 200 mg BID, N = 477) was 9%. The “Percentage of Patients with Nasopharyngitis” value ([11]; 200 mg BID, N = 477) was 6%, the “Percentage of Patients with Nausea” value ([11]; 200 mg BID, N = 477) was 16% and the “Percentage of Patients with Sinusitis” value ([11]; 200 mg BID, N = 477) was 6%. The “Percentage of Patients with Upper Respiratory Tract Infection” value ([11]; 200 mg BID, N = 477) was 4%, the “discontinuations due to hot flush” value ([11]; 150 mg QD) was 0.8% and the “discontinuations due to nausea” value ([11]; 150 mg QD) was 0.8%. For the same compound, the “patients who discontinued therapy due to adverse reactions” value ([11]; 150 mg QD) was 5.5%, the “discontinuations due to hot flush” value ([11]; 200 mg BID) was 2.5% and the “discontinuations due to nausea” value ([11]; 200 mg BID) was 1.5%. The “patients who discontinued therapy due to adverse reactions” value ([11]; 200 mg BID) was 9.6% and the “Events of hot flushes” value ([11]; majority assessed as mild to moderate) was “dose-dependent”.
